Assay results from ChEMBL document CHEMBL3400108, “Synthesis and biological evaluation of open-chain analogs of cyclic peptides as inhibitors of cellular Shp2 activity” (Bioorg Med Chem, 2015).
Non-standard residues stand in square brackets, D forms with d. Residues, ends and D or L forms follow the SMILES beside them. Groups on a side chain read outwards from the residue. *: point of attachment. Phe(4-Br) = N[C@@H](Cc1ccc(Br)cc1)C(=O)O; Phe(4-Cl) = N[C@@H](Cc1ccc(Cl)cc1)C(=O)O; Phe(4-F) = N[C@@H](Cc1ccc(F)cc1)C(=O)O; 2Nal = N[C@@H](Cc1ccc2ccccc2c1)C(=O)O; NEt2 = CCN(CC)*

Legend:
[1] = target: Cathepsin B (Homo sapiens, UniProt P07858); assay: Inhibition of cathepsin B (unknown origin)
[2] = target: T1, Tyrosine-protein phosphatase non-receptor type 11 (Homo sapiens, UniProt Q06124); assay: Inhibition of SHP2 (unknown origin)
T1 sequence (Q06124 whole entry): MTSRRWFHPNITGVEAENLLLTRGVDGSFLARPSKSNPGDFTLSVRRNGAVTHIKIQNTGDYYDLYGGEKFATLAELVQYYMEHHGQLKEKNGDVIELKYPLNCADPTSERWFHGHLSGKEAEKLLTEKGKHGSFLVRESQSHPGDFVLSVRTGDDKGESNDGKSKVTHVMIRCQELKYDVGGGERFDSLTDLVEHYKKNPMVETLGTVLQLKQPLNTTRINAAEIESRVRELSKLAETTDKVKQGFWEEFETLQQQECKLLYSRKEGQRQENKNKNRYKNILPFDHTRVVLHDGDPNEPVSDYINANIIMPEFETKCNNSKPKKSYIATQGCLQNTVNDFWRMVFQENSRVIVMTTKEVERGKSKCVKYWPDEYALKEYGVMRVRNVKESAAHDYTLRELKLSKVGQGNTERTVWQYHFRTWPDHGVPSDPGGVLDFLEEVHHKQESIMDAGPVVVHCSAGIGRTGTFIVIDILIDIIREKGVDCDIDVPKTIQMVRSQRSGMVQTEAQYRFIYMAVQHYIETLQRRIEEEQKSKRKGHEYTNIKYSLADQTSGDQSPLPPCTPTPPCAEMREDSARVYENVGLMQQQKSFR

[3] = target: T2, Tyrosine-protein phosphatase non-receptor type 11 (Homo sapiens) (UniProt Q06124); assay: Inhibition of SHP2 (unknown origin) at 10 uM
T2 sequence (whole entry): T1 sequence (Q06124 whole entry)

[4] = target: T3, Monoglyceride lipase (Homo sapiens, UniProt Q99685); assay: Inhibition of MAGL (unknown origin)
T3 sequence (Q99685 whole entry): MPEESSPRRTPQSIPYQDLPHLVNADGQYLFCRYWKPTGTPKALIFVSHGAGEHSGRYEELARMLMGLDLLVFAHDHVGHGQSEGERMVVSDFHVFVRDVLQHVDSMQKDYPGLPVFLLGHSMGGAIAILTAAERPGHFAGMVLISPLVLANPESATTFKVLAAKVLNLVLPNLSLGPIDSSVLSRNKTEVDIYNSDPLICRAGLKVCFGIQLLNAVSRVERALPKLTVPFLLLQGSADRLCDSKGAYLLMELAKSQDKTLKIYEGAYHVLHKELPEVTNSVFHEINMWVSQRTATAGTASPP

[5] = target: T2, Tyrosine-protein phosphatase non-receptor type 11 (Homo sapiens); assay: Inhibition of SHP2 (unknown origin) at 25 uM
[6] = target: T2, Tyrosine-protein phosphatase non-receptor type 11 (Homo sapiens); assay: Inhibition of SHP2 (unknown origin) at 50 uM
[7] = Inhibition of IMPDH (unknown origin); parameters: species or system Homo sapiens
[8] = target: Acetylcholinesterase (Homo sapiens, UniProt P22303); assay: Inhibition of AchE (unknown origin)
Acetylcholinesterase, sequence (P22303 whole entry): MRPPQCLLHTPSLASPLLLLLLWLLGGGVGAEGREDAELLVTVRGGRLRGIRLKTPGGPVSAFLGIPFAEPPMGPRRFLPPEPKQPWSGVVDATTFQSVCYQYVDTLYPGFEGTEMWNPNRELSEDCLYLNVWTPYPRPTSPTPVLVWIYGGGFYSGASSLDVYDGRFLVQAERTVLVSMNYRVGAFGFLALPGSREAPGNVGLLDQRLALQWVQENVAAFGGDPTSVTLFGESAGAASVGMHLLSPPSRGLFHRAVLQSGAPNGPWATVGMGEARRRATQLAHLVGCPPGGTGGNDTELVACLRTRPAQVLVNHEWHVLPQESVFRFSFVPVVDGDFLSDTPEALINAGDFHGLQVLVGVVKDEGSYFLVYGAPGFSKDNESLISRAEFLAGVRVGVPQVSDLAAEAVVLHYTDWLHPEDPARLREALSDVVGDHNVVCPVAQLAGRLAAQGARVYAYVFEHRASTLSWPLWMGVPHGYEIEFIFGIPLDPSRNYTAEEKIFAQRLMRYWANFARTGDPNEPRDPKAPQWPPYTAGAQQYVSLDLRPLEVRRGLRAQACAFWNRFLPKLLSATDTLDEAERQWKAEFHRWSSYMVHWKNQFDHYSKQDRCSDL

[9] = tested on: Proteasome; assay: Inhibition of proteasome (unknown origin); assay type: subcellular, Homo sapiens
[10] = tested on: MDA-MB-231; assay: Antitumor activity against human MDA-MB-231 cells; assay type: functional, cell-based
[11] = target: T2, Tyrosine-protein phosphatase non-receptor type 11 (Homo sapiens); assay: Inhibition of SHP2 (unknown origin) at 100 uM
[12] = target: T2, Tyrosine-protein phosphatase non-receptor type 11 (Homo sapiens); assay: Inhibition of SHP2 (unknown origin) at 20 uM
[13] = target: T2, Tyrosine-protein phosphatase non-receptor type 11 (Homo sapiens); assay: Inhibition of SHP2 (unknown origin) at 5 uM
[14] = tested on: HeLa; assay: Antitumor activity against human HeLa cells; assay type: functional, cell-based

SMILES	IC50 [1]	IC50 [2]	inhibition [3]	IC50 [4]	inhibition [5]	inhibition [6]	IC50 [7]	IC50 [8]	IC50 [9]	IC50 [10]	inhibition [11]	inhibition [12]	inhibition [13]	IC50 [14]
CCN(CC)C(=O)[C@H](Cc1ccccc1)NC(=O)[C@H](CC(C)C)NC(=O)[C@@H](NC(=O)[C@@H](N)COC(=O)[C@H](CC(C)C)NC(C)=O)C(C)C (H-S([Leu-Ac])VLF-NEt2)	> 148 µM	36.8 µM	31%	> 148 µM	46%	83%	> 100 µg/mL	> 148 µM	> 100 µg/mL	> 50 µg/mL	94%	40%	12%	> 50 µg/mL
CCN(CC)C(=O)[C@H](Cc1ccc(OC)cc1)NC(=O)[C@H](CC(C)C)NC(=O)[C@@H](NC(=O)[C@@H](N)COC(=O)[C@H](CC(C)C)NC(C)=O)C(C)C (H-S([Leu-Ac])VLY(Me)-NEt2)	> 142 µM			> 142 µM		52%	> 100 µg/mL	> 142 µM	> 100 µg/mL	> 50 µg/mL	92%	34%		> 50 µg/mL
CCN(CC)C(=O)[C@H](Cc1ccc2ccccc2c1)NC(=O)[C@H](CC(C)C)NC(=O)[C@@H](NC(=O)[C@@H](N)COC(=O)[C@H](CC(C)C)NC(C)=O)C(C)C (H-S([Leu-Ac])VL[2Nal]-NEt2)	> 138 µM			> 138 µM		46%	> 100 µg/mL	> 138 µM	> 100 µg/mL	> 50 µg/mL	93%	27%		> 50 µg/mL
CCN(CC)C(=O)[C@H](Cc1ccc(Br)cc1)NC(=O)[C@H](CC(C)C)NC(=O)[C@@H](NC(=O)[C@@H](N)COC(=O)[C@H](CC(C)C)NC(C)=O)C(C)C (H-S([Leu-Ac])VL[Phe(4-Br)]-NEt2)	> 133 µM	33.2 µM	26%	> 133 µM	49%	78%	> 100 µg/mL	> 133 µM	> 100 µg/mL	> 50 µg/mL	96%	46%	21%	> 50 µg/mL
CCN(CC)C(=O)[C@H](Cc1ccc(Cl)cc1)NC(=O)[C@H](CC(C)C)NC(=O)[C@@H](NC(=O)[C@@H](N)COC(=O)[C@H](CC(C)C)NC(C)=O)C(C)C (H-S([Leu-Ac])VL[Phe(4-Cl)]-NEt2)	> 141 µM			> 141 µM		49%	> 100 µg/mL	> 141 µM	> 100 µg/mL	> 50 µg/mL	89%	21%		> 50 µg/mL
CCN(CC)C(=O)[C@H](Cc1ccc(F)cc1)NC(=O)[C@H](CC(C)C)NC(=O)[C@@H](NC(=O)[C@@H](N)COC(=O)[C@H](CC(C)C)NC(C)=O)C(C)C (H-S([Leu-Ac])VL[Phe(4-F)]-NEt2)	> 144 µM			> 144 µM		55%	> 100 µg/mL	> 144 µM	> 100 µg/mL	> 50 µg/mL	97%	32%		> 50 µg/mL
CCN(CC)C(=O)[C@H](Cc1ccccc1)NC(=O)[C@H](CC(C)C)NC(=O)[C@@H](NC(=O)[C@@H](N)COC(=O)[C@@H]1CCCN1C(C)=O)C(C)C (H-S([Pro-Ac])VLF-NEt2)	> 152 µM			> 152 µM		54%	> 100 µg/mL	> 152 µM	> 100 µg/mL	> 50 µg/mL	95%	29%		> 50 µg/mL
CCN(CC)C(=O)[C@H](Cc1ccc(OC)cc1)NC(=O)[C@H](CC(C)C)NC(=O)[C@@H](NC(=O)[C@@H](N)COC(=O)[C@@H]1CCCN1C(C)=O)C(C)C (H-S([Pro-Ac])VLY(Me)-NEt2)	> 145 µM			> 145 µM		53%	> 100 µg/mL	> 145 µM	> 100 µg/mL	> 50 µg/mL	87%	35%		> 50 µg/mL
CCN(CC)C(=O)[C@H](Cc1ccc2ccccc2c1)NC(=O)[C@H](CC(C)C)NC(=O)[C@@H](NC(=O)[C@@H](N)COC(=O)[C@@H]1CCCN1C(C)=O)C(C)C (H-S([Pro-Ac])VL[2Nal]-NEt2)	> 141 µM	12.5 µM	47%	> 141 µM	61%	76%	> 100 µg/mL	> 141 µM	> 100 µg/mL	> 50 µg/mL	94%	58%	33%	> 50 µg/mL
CCN(CC)C(=O)[C@H](Cc1ccc(Br)cc1)NC(=O)[C@H](CC(C)C)NC(=O)[C@@H](NC(=O)[C@@H](N)COC(=O)[C@@H]1CCCN1C(C)=O)C(C)C (H-S([Pro-Ac])VL[Phe(4-Br)]-NEt2)	> 136 µM			> 136 µM		51%	> 100 µg/mL	> 136 µM	> 100 µg/mL	> 50 µg/mL	86%	20%		> 50 µg/mL
CCN(CC)C(=O)[C@H](Cc1ccc(Cl)cc1)NC(=O)[C@H](CC(C)C)NC(=O)[C@@H](NC(=O)[C@@H](N)COC(=O)[C@@H]1CCCN1C(C)=O)C(C)C (H-S([Pro-Ac])VL[Phe(4-Cl)]-NEt2)	> 144 µM			> 144 µM		46%	> 100 µg/mL	> 144 µM	> 100 µg/mL	> 50 µg/mL	88%	37%		> 50 µg/mL
CCN(CC)C(=O)[C@H](Cc1ccc(F)cc1)NC(=O)[C@H](CC(C)C)NC(=O)[C@@H](NC(=O)[C@@H](N)COC(=O)[C@@H]1CCCN1C(C)=O)C(C)C (H-S([Pro-Ac])VL[Phe(4-F)]-NEt2)	> 148 µM	31.9 µM	23%	> 148 µM	47%	81%	> 100 µg/mL	> 148 µM	> 100 µg/mL	> 50 µg/mL	95%	44%	18%	> 50 µg/mL
